Results taken from patent US11976083B2, “Inhibitors of peptidylarginine deiminases” (Gilead Sciences, Inc., priority 2020, dated 2024).

Molecular target: T1, human PAD4 (Homo sapiens, UniProt Q9UM07)
T1 construct: human PAD4 (NM_012387), A2-P663, was PCR amplified; His-SUMO (N, cleaved yes); made in house; host or cells: E. coli BL21(DE3)
Assay: In vitro PAD4 BAEE biochemical assay
Settings: BAEE substrate 3 mM, 5 nM PAD4, 2 mM calcium chloride; geometric mean of multiple experiments
Outline: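 Recombinant PAD4 (5 nM final) with 2 mM CaCl2 was preincubated with compound for 30 min at 25 °C in MOPS pH 7.6 buffer with DTT, then reacted with 3 mM BAEE for 2 h at 25 °C. Released ammonia was detected fluorimetrically with o-phthalaldehyde/DTT; IC50 from four-parameter fit, geometric mean of experiments.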

T1 sequence (Q9UM07 2-663): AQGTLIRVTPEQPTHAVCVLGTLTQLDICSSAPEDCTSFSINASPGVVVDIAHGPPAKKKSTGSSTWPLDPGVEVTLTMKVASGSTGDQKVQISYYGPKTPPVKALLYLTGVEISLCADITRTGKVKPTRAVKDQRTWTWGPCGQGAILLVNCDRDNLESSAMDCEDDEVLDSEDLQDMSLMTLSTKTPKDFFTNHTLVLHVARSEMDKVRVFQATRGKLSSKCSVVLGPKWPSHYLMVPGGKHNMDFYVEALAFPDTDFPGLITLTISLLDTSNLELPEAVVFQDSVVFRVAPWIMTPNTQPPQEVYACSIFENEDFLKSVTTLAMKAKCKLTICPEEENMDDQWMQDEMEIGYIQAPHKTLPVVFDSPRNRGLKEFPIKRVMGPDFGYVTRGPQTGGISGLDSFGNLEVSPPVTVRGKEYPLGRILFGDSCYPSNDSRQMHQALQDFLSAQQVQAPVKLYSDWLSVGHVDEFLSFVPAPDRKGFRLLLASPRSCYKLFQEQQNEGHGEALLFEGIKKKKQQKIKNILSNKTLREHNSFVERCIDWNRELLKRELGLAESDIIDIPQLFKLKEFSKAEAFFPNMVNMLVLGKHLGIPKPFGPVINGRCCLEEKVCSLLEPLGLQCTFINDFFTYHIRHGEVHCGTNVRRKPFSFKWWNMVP

Compound | IC50
COc1cc(C(=O)N2CC[C@@H](OC(F)F)[C@@H](N)C2)cc2nc(-c3cc4ccc5nc4n3CC(F)(F)CCCCC(C)(C)C(=O)N[C@@H]5C)n(C)c12 [Example 609, (11~{R})-17-[5-[(3~{S}, 4~{R})-3-amino-4-(difluoromethoxy)piperidine-1-carbonyl]-7-methoxy-1-methyl-benzimidazol-2-yl]-3,3-difluoro-8,8,11-trimethyl-1,10,19-triazatricyclo[10.5.2.0^ {15,18}]nonadeca-12,14,16,18-tetraen-9-one] | 172 nM
COc1cc(C(=O)N2CC[C@@H](OC)[C@@H](N)C2)cc2nc(-c3cc4ccc5nc4n3C[C@H]3C[C@H]3COCCC(=O)N[C@@H]5C)n(C)c12 [Example 314, (3~{S),5~{R},12~{R})-18-[5-[(3~{S},4~{R})-3-amino-4-methoxy-piperidine-1-carbonyl]-7-methoxy-1-methyl-benzimidazol-2-yl]-12-methyl-7-oxa-1,11,20-triazatetracyclo[11.5.2.0^{3,5}.0^{16,19}] icosa-13(20),14,16(19),17-tetraen-10-one] | 156 nM
CO[C@@H]1CCN(C(=O)c2cc(F)c3c(c2)nc(-c2cc4ccc5nc4n2CCCCCCC(c2ccccn2)C(=O)N[C@@H]5C)n3C2CC2)C[C@@H]1N (stereo partly shown) [Example 871, (11~{R})-17-[5-[(3~{S), 4~{R})-3-amino-4-methoxy-piperidine-1-carbonyl]-1-cyclopropyl-7-fluoro-benzimidazol-2-yl]-11-methyl-8-(2-pyridyl)-1,10,19-triazatricyclo[10.5.2.0^{15,18}] nonadeca-12(19), 13,15(18),16-tetraen-9-one] | 31 nM

The remaining compounds from weak to strong by IC50, led by results:

IC50 | Compound
47 nM | COCCn1c(-c2cc3ccc4nc3n2CCCCC[C@@H]2C[C@H]2C(=O)N[C@@H]4C)nc2cc(C(=O)N[C@H]3CNCC[C@@H]3F)c(F)c(F)c21 [Example 559, 6,7-difluoro-~{N}-[(3~{S},4~{S})-4-fluoro-3-piperidyl]-1-(2-methoxyethyl)-2-[(2~{R},5~{R},7~ {R})-2-methyl-4-oxo-3,13,19-triazatetracyclo [11.5.2.0^{5,7}.0^{16,20}]icosa-1(19),14,16(20), 17-tetraen-14-yl] benzimidazole-5-carboxamide]
26 nM | C[C@H]1NC(=O)c2c(Cl)cncc2CCCCCn2c(-c3nc4cc(C(=O)N[C@H]5CNCC[C@@H]5F)c(F)cc4n3C3CC3)cc3ccc1nc32 [Example 354, 2-[(2~{R})-6-chloro-2-methyl-4-oxo-3,8,16,22-tetrazatetracyclo[14.5.2.0^{5,10}.0^{19,23}]tricosa-1(22),5,7,9,17,19(23),20-heptaen-17-yl]-1-cyclopropyl-6-fluoro- ~{N}-[(3~{S},4~{S})-4-fluoro-3-piperidyl]benzimidazole-5-carboxamide]
22 nM | CO[C@@H]1CCN(C(=O)c2cc(F)c3c(c2)nc(-c2cc4ccc5nc4n2CCCCCc2nc(Cl)ccc2C(=O)N[C@@H]5C)n3C2CC2)C[C@@H]1N [Example 789, (2~{R})-17-[5-[(3~{S},4~{R})-3-amino-4-methoxy-piperidine-1-carbonyl]-1-cyclopropyl-7-fluoro-benzimidazol-2-yl]-8-chloro-2-methyl-3,9,16,22-tetrazatetracyclo[14.5.2.0^ {5,10}.0^{19,23}]tricosa-1(21),5(10),6,8,17,19,22-heptaen-4-one]
16 nM | [2H]C1([2H])[C@H](N)[C@@H]2CC[C@@H](C2)N1C(=O)c1cc(OC)c2c(c1)nc(-c1cc3ccc4nc3n1CC(F)(F)CCC[C@@H]1C[C@H]1C(=O)N[C@@H]4C)n2C [Example 765, (2~{R},5~{R},7~{R})-14-[5-[(1~{S},4~{R},5~{R})-4-amino-3,3-dideuterio-2-azabicyclo[3.2.1]octane-2-carbonyl]-7-methoxy-1-methyl-benzimidazol-2-yl]-11,11-difluoro-2-methyl-3,13,19-triazatetracyclo[11.5.2.0^ {5,7}.0^{16,20}]icosa-1(19),14,16(20),17-tetraen-4-one]
